Results taken from ChEMBL document CHEMBL1201862, “PubChem BioAssay data set” (2004).
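Test compounds were applied to cells in 96-well plates for 48 hours at 5 doses. At the GI50, growth is halved.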 Calls of active or inactive are those of the source. No stated cut-off is given here; in the data, active = GI50 up to about 1.1 µM and inactive = higher.

Experiments:
Test in all cases: NCI anticancer screen, dose series, 48 h
T47D = test system: T47D
MOLT-4 = test system: MOLT-4
DU-145 = test system: DU-145
SNB-75 = test system: SNB-75
HOP-92 = test system: HOP-92
TK-10 = test system: TK-10
NCI-H522 = test system: NCI-H522
HCC 2998 = test system: HCC 2998
M14 = test system: M14
A498 = test system: A498
UACC-257 = test system: UACC-257
OVCAR-3 = test system: OVCAR-3
MDA-N = test system: MDA-N
SK-MEL-28 = test system: SK-MEL-28
KM12 = test system: KM12
NCI-H460 = test system: NCI-H460
UO-31 = test system: UO-31
SF-295 = test system: SF-295
SK-MEL-2 = test system: SK-MEL-2
SK-MEL-5 = test system: SK-MEL-5

| SMILES | GI50 (T47D) | GI50 (MOLT-4) | GI50 (DU-145) | GI50 (SNB-75) | GI50 (HOP-92) | GI50 (TK-10) | GI50 (NCI-H522) | GI50 (HCC 2998) | GI50 (M14) | GI50 (A498) | GI50 (UACC-257) | GI50 (OVCAR-3) | GI50 (MDA-N) | GI50 (SK-MEL-28) | GI50 (KM12) | GI50 (NCI-H460) | GI50 (UO-31) | GI50 (SF-295) | GI50 (SK-MEL-2) | GI50 (SK-MEL-5) |
| --- | --- | --- | --- | --- | --- | --- | --- | --- | --- | --- | --- | --- | --- | --- | --- | --- | --- | --- | --- | --- |
| Cc1cc2oc(=O)c(Cl)c(Cl)c2c(C)c1Cl | 5.46 µM (inactive) | 2.1 µM (inactive) | 14.6 µM (inactive) | 12.4 µM (inactive) | 1.58 µM (inactive) | 14.8 µM (inactive) | 14.3 µM (inactive) | 5.51 µM (inactive) | 10.4 µM (inactive) | 19.9 µM (inactive) | 15.1 µM (inactive) | 2.58 µM (inactive) | 2.92 µM (inactive) | 15.4 µM (inactive) | 15.1 µM (inactive) | 16.7 µM (inactive) | 12.7 µM (inactive) | 14.4 µM (inactive) | 4.44 µM (inactive) | 6.93 µM (inactive) |
| Cc1coc2c1C(=O)C(=O)c1c-2ccc2c1CCCC2(C)C [TANSHINONE IIA] | 2.96 µM (inactive) | 3.18 µM (inactive) | 2.52 µM (inactive) | 3.41 µM (inactive) | > 70.5 µM (inactive) | 21.6 µM (inactive) | 1.54 µM (inactive) | 4.06 µM (inactive) | 1.06 µM (active) | 7.74 µM (inactive) | 0.771 µM (active) | 0.303 µM (active) | 1.37 µM (inactive) | 2.15 µM (inactive) | 3.76 µM (inactive) | 1.17 µM (inactive) | 2.33 µM (inactive) | 2.48 µM (inactive) | 2.28 µM (inactive) | 0.213 µM (active) |
| COc1ccc(Cl)cc1NC(=O)c1cccc([N+](=O)[O-])c1O | 9.25 µM (inactive) | 16.8 µM (inactive) | 23.7 µM (inactive) | 17.8 µM (inactive) | 3 µM (inactive) | 32.9 µM (inactive) | 6.49 µM (inactive) | 14 µM (inactive) | 24.4 µM (inactive) | 5.7 µM (inactive) | 15.2 µM (inactive) | 5.19 µM (inactive) | 19.8 µM (inactive) | 11.7 µM (inactive) | 19.5 µM (inactive) | 15.7 µM (inactive) | 7.35 µM (inactive) | 17.8 µM (inactive) | 4.17 µM (inactive) | 4 µM (inactive) |
| O=C(c1cc(Br)ccc1O)c1cc(Br)ccc1O | 14.2 µM (inactive) | 18.4 µM (inactive) | 15.8 µM (inactive) | 16.4 µM (inactive) | 13.6 µM (inactive) | 18.9 µM (inactive) | 15 µM (inactive) | 19.1 µM (inactive) | 15.7 µM (inactive) | 17.6 µM (inactive) | 15.7 µM (inactive) | 15.7 µM (inactive) | 14.3 µM (inactive) | 16.8 µM (inactive) | 17.1 µM (inactive) | 17.6 µM (inactive) | 14.3 µM (inactive) | 17.7 µM (inactive) | 15.7 µM (inactive) | 12.6 µM (inactive) |
| N[C@H](C(=O)O)[C@@H]1CC(Br)=NO1 | > 34.1 µM (inactive) | 22.6 µM (inactive) | 5.57 µM (inactive) | 16.8 µM (inactive) | > 29.4 µM (inactive) | 16 µM (inactive) | > 32 µM (inactive) | 22.7 µM (inactive) | 11.5 µM (inactive) | 18.1 µM (inactive) | 54.2 µM (inactive) | 16.5 µM (inactive) | 8.41 µM (inactive) | 32.7 µM (inactive) | 10.6 µM (inactive) | 4.31 µM (inactive) | 6.46 µM (inactive) | 6.28 µM (inactive) | > 91.8 µM (inactive) | 14.5 µM (inactive) |
| COc1nc2c(c(=O)n1C)NC(C(O)C(O)CO)C=N2 (stereo not given) | > 10 µM (inactive) | > 10 µM (inactive) | > 10 µM (inactive) | > 10 µM (inactive) | > 10 µM (inactive) | > 10 µM (inactive) | > 10 µM (inactive) | > 10 µM (inactive) | > 10 µM (inactive) | > 10 µM (inactive) | > 10 µM (inactive) | > 10 µM (inactive) | > 10 µM (inactive) | > 10 µM (inactive) | > 10 µM (inactive) | > 10 µM (inactive) | > 10 µM (inactive) | > 10 µM (inactive) | > 10 µM (inactive) | > 10 µM (inactive) |
